Test results: patent US20120251495A1, “PTERIN BASED THERAPIES FOR INFLAMMATORY CONDITIONS” (priority 2008, published 2012)

Legend:
[1] = tested on: hepatitis B virus (HBV); assay: Liver HBV DNA by quantitative PCR in HBV transgenic mice; assay type: in vivo; conditions: female HBV mice; 23.0 mg/(kg day), per os 14 days
[2] = Toxicity by body weight changes in nude mice; assay type: in vivo, athymic nude mice
Protocol: The aims of the 1st experiment were to determine a dose-response curve for the (1:4 mol:mol) calcium pterin suspension, to compare the antitumor activity of this suspension to pterin alone (pterin control), and to test the effect of CaPterin mega-dosing at 100 mg/kg/day. Antitumor efficacy was evaluated in nude mice with MDA-MB-231 human tumor xenographs by Perry Scientific (San Diego, Calif.). In the 1st experiment, twenty-three athymic nude (nu/nu) female mice, ages 3-4 weeks, were purchased from Harlan Sprague Dawley, Inc. (Indianapolis, Ind.). 5×10^6 MDA-MB-231 cancer cells were injected subcutaneously into the right flank of each mouse. When tumors reached 3-5 mm in size, twenty mice were divided into four treatment/control groups of five mice each. The four treatment groups were: (1:4 mol:mol) calcium pterin (7 mg/kg/day); pterin (21 mg/kg/day); (1:4 mol:mol) calcium pterin (21 mg/kg/day); and sterile water control. […]
The control mice in the 1st experiment were treated with sterile water while the control mice in the 2nd experiment were untreated to evaluate the effect of mouse handling and gavaging upon tumor growth. […] Tumors were measured twice weekly with calipers and body weights taken twice weekly on the day of tumor measurements. […]

| Compound | Log HBV DNA (PCR) versus controls [1] | toxicity (appreciable weight loss) ([2]; mega-dosed 100 mg/kg/day oral gavage for up to 31 days) | greatest weight loss (body weight) ([2]; mega-dosed group 100 mg/kg/day, one mouse, after 32 days) [%] |
| --- | --- | --- | --- |
| Nc1nc([O-])c2nccnc2n1.Nc1nc([O-])c2nccnc2n1.[Ca+2] [DCP, dipterinyl calcium pentahydrate] | significant treatment decreases | – | – |
| (1:4 mol:mol) calcium pterin [CaPterin] | – | no observed toxicity | 8.1 |
